Measurements: patent publication US8791046B2, “Crystalline modification of fipronil” (BASF SE, priority 2006, dated 2014)

How the values were obtained:
[1] = Stability of the acetone solvate crystal form at ambient conditions; format: physicochemical; details: co-crystallized acetone solvent is volatile at ambient conditions
[2] = Solubility and dissolution rate in solvents; format: physicochemical; details: in most solvents

fipronil [crystalline modification IV]
stability of the crystalline modification [1]: remarkable stability
dissolution rate [2]: remarkable high
solubility [2]: remarkable high
